Reference: patent US8901138B2, “Sulfoximine substituted quinazolines for pharmaceutical compositions” (Boehringer Ingelheim International GmbH, priority 2012, dated 2014)

Molecular target: T1, MNK2a (Homo sapiens, UniProt Q9HBH9)
T1 construct: made in house
Assay: MNK2a in vitro kinase assay (assay 1), ADP-Glo
Assay type: biochemical
Conditions: preactivated GST-MNK2a, 20 μM ATP, read-out: MNK2 IC50
In short: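 Preactivated GST-MNK2a (10 nM) with eIF4E peptide (25 μM) and ATP (20 μM) in HEPES/DTT/MgCl2 buffer, 90 min at room temperature, final DMSO <3%. ADP formed read by ADP-Glo luminescence and normalised to vehicle and 20 μM reference-inhibitor controls; IC50 from dose-response curves.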

T1 sequence (Q9HBH9 whole entry): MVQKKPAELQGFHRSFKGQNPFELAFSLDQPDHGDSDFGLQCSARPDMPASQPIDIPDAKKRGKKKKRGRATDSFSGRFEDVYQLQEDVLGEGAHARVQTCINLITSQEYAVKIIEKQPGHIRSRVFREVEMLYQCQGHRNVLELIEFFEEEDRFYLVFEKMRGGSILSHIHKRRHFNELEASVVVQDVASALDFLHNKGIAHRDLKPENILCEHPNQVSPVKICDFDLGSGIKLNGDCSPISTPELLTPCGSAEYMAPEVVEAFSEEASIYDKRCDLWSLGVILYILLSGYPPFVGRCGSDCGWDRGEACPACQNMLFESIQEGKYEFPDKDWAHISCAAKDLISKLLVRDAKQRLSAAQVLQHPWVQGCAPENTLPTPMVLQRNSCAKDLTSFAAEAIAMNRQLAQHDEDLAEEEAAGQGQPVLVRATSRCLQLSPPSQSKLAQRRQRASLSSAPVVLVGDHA

| IC50 | Structure (SMILES) |
| --- | --- |
| 4 nM | Cc1cc(N=S(C)(=O)c2cccnc2)cc2ncnc(Nc3ccc(F)cc3O[C@@H]3CO[C@@H]4CCO[C@@H]43)c12 (some centres unmarked) [Example 2.95] |
| 9 nM | CO[C@H]1CC[C@H](Oc2cc(F)ccc2Nc2ncnc3cc(N=S4(=O)CCN(C(=O)OC(C)(C)C)CC4)cc(C)c23)CC1 [Example 2.14] |
| 2 nM | Cc1cc(N=S2(=O)CCCC2)cc2ncnc(Nc3ccc(F)cc3O[C@@H]3CCCN(CCO)C3)c12 [Example 6.7] |
| 2 nM | Cc1cc(N=S2(=O)CCC2)cc2ncnc(Nc3ccc(F)cc3O[C@H]3CC[C@H](O)CC3)c12 [Example 2.110] |
| 6 nM | Cc1cc(N=S(C)(=O)C(C)(C)C)cc2ncnc(Nc3ccc(F)cc3O[C@H]3CCOC3)c12 (some centres unmarked) [Example 2.112] |
| 5 nM | Cc1cc(N=S(C)(=O)CCN(C)C)cc2ncnc(Nc3ccc(F)cc3O[C@H]3CC[C@H](O)CC3)c12 (some centres unmarked) [Example 2.113] |
| 2 nM | CCS(C)(=O)=Nc1cc(C)c2c(Nc3ccc(F)cc3O[C@@H]3CO[C@H]4[C@@H]3OC[C@H]4OC)ncnc2c1 (some centres unmarked) [Example 2.55] |
| 3 nM | CS(C)(=O)=Nc1cc(C2CC2)c2c(Nc3ccc(F)cc3O[C@H]3CCOC3)ncnc2c1 [Example 1.15] |
| 4 nM | Cc1cc(N=S(C)(C)=O)cc2ncnc(Nc3cccnc3OC3CCOCC3)c12 [Example 2.6] |
| 3 nM | Cc1cc(N=[S@@](C)(=O)c2ccccc2)cc2ncnc(Nc3ccc(F)cc3O[C@H]3CCOC3)c12 [Example 2.64] |
| 25 nM | CS(C)(=O)=Nc1cc(O)c2c(Nc3ccc(F)cc3O[C@H]3CCOC3)ncnc2c1 [Example 1.22] |
| 3 nM | CO[C@H]1CC[C@H](Oc2cc(F)ccc2Nc2ncnc3cc(N=S(C)(C)=O)cc(C)c23)CC1 [Example 2.75] |
| 1 nM | CO[C@@H]1CO[C@H]2[C@@H]1OC[C@H]2Oc1cc(F)ccc1Nc1ncnc2cc(N=S(C)(C)=O)cc(Br)c12 [Example 1.20] |
| 111 nM | CS(C)(=O)=Nc1cc(F)c2c(Nc3cccnc3O[C@@H]3CCCNC3)ncnc2c1 [Example 3.1] |
| 4 nM | Cc1cc(N=S(C)(C)=O)cc2ncnc(Nc3ccc(F)cc3O[C@H]3CC[C@H](C#N)CC3)c12 [Example 4.4] |
| 22 nM | CS(C)(=O)=Nc1cc(F)c2c(Nc3ccc(F)cc3O[C@@H]3CCCNC3)ncnc2c1 [Example 3.8] |
| 3 nM | Cc1cc(N=S2(=O)CCCC2)cc2ncnc(Nc3ccc(F)cc3O[C@@H]3CCCNC3)c12 [Example 3.12] |
| 2 nM | CCOc1cc(N=S(C)(C)=O)cc2ncnc(Nc3ccc(F)cc3O[C@H]3CCOC3)c12 [Example 5.1] |
| 1 nM | CCO[C@@H]1CO[C@H]2[C@@H]1OC[C@H]2Oc1cc(F)ccc1Nc1ncnc2cc(N=S3(=O)CCCC3)cc(C)c12 [Example 2.37] |
| 6 nM | Cc1cc(N=S(C)(C)=O)cc2ncnc(Nc3cccnc3O[C@@H]3CO[C@H]4[C@@H]3OC[C@H]4O)c12 [Example 1.9] |
| 2 nM | CSc1cc(N=S(C)(C)=O)cc2ncnc(Nc3ccc(F)cc3O[C@H]3CCOC3)c12 [Example 7.10] |
| 1 nM | CS(C)(=O)=Nc1cc(Cl)c2c(Nc3ccc(F)cc3O[C@@H]3CO[C@@H]4CCO[C@@H]43)ncnc2c1 [Example 1.4] |
| 23 nM | Cc1cc(N=S(C)(C)=O)cc2ncnc(Nc3ccc(F)cc3O[C@@H]3CCN(CCO)C3)c12 [Example 6.17] |
| 7 nM | COCCS(C)(=O)=Nc1cc(C)c2c(Nc3ccc(F)cc3O[C@H]3CC[C@H](OC)CC3)ncnc2c1 (some centres unmarked) [Example 2.87] |
| 5 nM | CS(C)(=O)=Nc1cc(F)c2c(Nc3cccnc3O[C@H]3CC[C@H](N)CC3)ncnc2c1 [Example 3.5] |
| 1 nM | Cc1cc(N=S(C)(C)=O)cc2ncnc(Nc3ccc(F)cc3O[C@@H]3CCCC[C@H]3F)c12 [Example 7.17] |
| 2 nM | Cc1cc(N=S(C)(C)=O)cc2ncnc(Nc3ccc(F)cc3O[C@@H]3CO[C@H]4[C@@H]3OC[C@@H]4F)c12 [Example 2.116] |

Molecular target: MNK1a (Homo sapiens, UniProt Q9BUB5)
Sequence (Q9BUB5 1-424 isoform Q9BUB5-2): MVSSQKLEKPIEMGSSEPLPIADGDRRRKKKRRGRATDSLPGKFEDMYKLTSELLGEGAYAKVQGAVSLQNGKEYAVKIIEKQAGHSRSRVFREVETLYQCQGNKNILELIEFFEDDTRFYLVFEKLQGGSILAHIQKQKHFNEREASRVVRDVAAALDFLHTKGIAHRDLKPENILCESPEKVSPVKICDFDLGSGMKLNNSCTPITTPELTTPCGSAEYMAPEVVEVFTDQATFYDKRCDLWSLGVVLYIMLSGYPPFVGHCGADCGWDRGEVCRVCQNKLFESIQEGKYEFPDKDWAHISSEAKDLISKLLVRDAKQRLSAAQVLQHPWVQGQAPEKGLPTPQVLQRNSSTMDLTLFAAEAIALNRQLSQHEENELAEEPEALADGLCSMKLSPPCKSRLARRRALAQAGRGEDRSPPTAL
Assay: MNK1 in vitro kinase assay (assay 2), Z'-LYTE
Assay type: biochemical
Conditions: compound concentration of 1 μM
In short: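 Pre-activated GST-MNK1a (13.5-54 ng) with 2 μM Ser/Thr 07 FRET peptide in 50 mM HEPES pH 7.5, 10 mM MgCl2, 2 mM MnCl2, 1 mM EGTA, 1 mM DTT, 1% DMSO; 1 h kinase then 1 h development at room temperature. Coumarin/fluorescein emission ratio gives % phosphorylation; sigmoidal dose-response fit.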

| inhibition at 1 µM | Structure (SMILES) |
| --- | --- |
| 52% | CO[C@H]1CC[C@H](Oc2cc(F)ccc2Nc2ncnc3cc(N=S4(=O)CCN(C(=O)OC(C)(C)C)CC4)cc(C)c23)CC1 [Example 2.14] |
| 100% | Cc1cc(N=S2(=O)CCCC2)cc2ncnc(Nc3ccc(F)cc3O[C@@H]3CCCN(CCO)C3)c12 [Example 6.7] |
| 100% | Cc1cc(N=S2(=O)CCC2)cc2ncnc(Nc3ccc(F)cc3O[C@H]3CC[C@H](O)CC3)c12 [Example 2.110] |
| 89% | Cc1cc(N=S(C)(=O)C(C)(C)C)cc2ncnc(Nc3ccc(F)cc3O[C@H]3CCOC3)c12 (some centres unmarked) [Example 2.112] |
| 90% | Cc1cc(N=S(C)(=O)CCN(C)C)cc2ncnc(Nc3ccc(F)cc3O[C@H]3CC[C@H](O)CC3)c12 (some centres unmarked) [Example 2.113] |
| 99% | CCS(C)(=O)=Nc1cc(C)c2c(Nc3ccc(F)cc3O[C@@H]3CO[C@H]4[C@@H]3OC[C@H]4OC)ncnc2c1 (some centres unmarked) [Example 2.55] |
| 95% | CS(C)(=O)=Nc1cc(C2CC2)c2c(Nc3ccc(F)cc3O[C@H]3CCOC3)ncnc2c1 [Example 1.15] |
| 92% | Cc1cc(N=S(C)(C)=O)cc2ncnc(Nc3cccnc3OC3CCOCC3)c12 [Example 2.6] |
| 87% | Cc1cc(N=[S@@](C)(=O)c2ccccc2)cc2ncnc(Nc3ccc(F)cc3O[C@H]3CCOC3)c12 [Example 2.64] |
| 56% | CS(C)(=O)=Nc1cc(O)c2c(Nc3ccc(F)cc3O[C@H]3CCOC3)ncnc2c1 [Example 1.22] |
| 100% | CO[C@H]1CC[C@H](Oc2cc(F)ccc2Nc2ncnc3cc(N=S(C)(C)=O)cc(C)c23)CC1 [Example 2.75] |
| 100% | CO[C@@H]1CO[C@H]2[C@@H]1OC[C@H]2Oc1cc(F)ccc1Nc1ncnc2cc(N=S(C)(C)=O)cc(Br)c12 [Example 1.20] |
| 50% | CS(C)(=O)=Nc1cc(F)c2c(Nc3cccnc3O[C@@H]3CCCNC3)ncnc2c1 [Example 3.1] |
| 92% | Cc1cc(N=S(C)(C)=O)cc2ncnc(Nc3ccc(F)cc3O[C@H]3CC[C@H](C#N)CC3)c12 [Example 4.4] |
| 79% | CS(C)(=O)=Nc1cc(F)c2c(Nc3ccc(F)cc3O[C@@H]3CCCNC3)ncnc2c1 [Example 3.8] |
| 95% | Cc1cc(N=S2(=O)CCCC2)cc2ncnc(Nc3ccc(F)cc3O[C@@H]3CCCNC3)c12 [Example 3.12] |
| 101% | CCOc1cc(N=S(C)(C)=O)cc2ncnc(Nc3ccc(F)cc3O[C@H]3CCOC3)c12 [Example 5.1] |
| 95% | CCO[C@@H]1CO[C@H]2[C@@H]1OC[C@H]2Oc1cc(F)ccc1Nc1ncnc2cc(N=S3(=O)CCCC3)cc(C)c12 [Example 2.37] |
| 90% | Cc1cc(N=S(C)(C)=O)cc2ncnc(Nc3cccnc3O[C@@H]3CO[C@H]4[C@@H]3OC[C@H]4O)c12 [Example 1.9] |
| 100% | CSc1cc(N=S(C)(C)=O)cc2ncnc(Nc3ccc(F)cc3O[C@H]3CCOC3)c12 [Example 7.10] |
| 100% | CS(C)(=O)=Nc1cc(Cl)c2c(Nc3ccc(F)cc3O[C@@H]3CO[C@@H]4CCO[C@@H]43)ncnc2c1 [Example 1.4] |
| 79% | Cc1cc(N=S(C)(C)=O)cc2ncnc(Nc3ccc(F)cc3O[C@@H]3CCN(CCO)C3)c12 [Example 6.17] |
| 79% | COCCS(C)(=O)=Nc1cc(C)c2c(Nc3ccc(F)cc3O[C@H]3CC[C@H](OC)CC3)ncnc2c1 (some centres unmarked) [Example 2.87] |
| 101% | CS(C)(=O)=Nc1cc(F)c2c(Nc3cccnc3O[C@H]3CC[C@H](N)CC3)ncnc2c1 [Example 3.5] |
| 96% | Cc1cc(N=S(C)(C)=O)cc2ncnc(Nc3ccc(F)cc3O[C@@H]3CCCC[C@H]3F)c12 [Example 7.17] |
| 100% | Cc1cc(N=S(C)(C)=O)cc2ncnc(Nc3ccc(F)cc3O[C@@H]3CO[C@H]4[C@@H]3OC[C@@H]4F)c12 [Example 2.116] |

Same assay, conditions: pre-activated GST-MNK1a

| IC50 | Structure (SMILES) |
| --- | --- |
| 33 nM | Cc1cc(N=S(C)(=O)c2cccnc2)cc2ncnc(Nc3ccc(F)cc3O[C@@H]3CO[C@@H]4CCO[C@@H]43)c12 (some centres unmarked) [Example 2.95] |
| 75 nM | CO[C@H]1CC[C@H](Oc2cc(F)ccc2Nc2ncnc3cc(N=S(C)(C)=O)cc(C)c23)CC1 [Example 2.75] |
| 25 nM | CS(C)(=O)=Nc1cc(Cl)c2c(Nc3ccc(F)cc3O[C@@H]3CO[C@@H]4CCO[C@@H]43)ncnc2c1 [Example 1.4] |
